Data on 22 compounds can be found in patent US12162893B2 (Erasca, Inc., priority 2020, dated 2024).

For the assay, the target named is T1, mutant G12C K-RAS (Homo sapiens, UniProt P01116, G12C).
T1 construct: made in house; host or cells: E. coli BL21
Briefly: covalent adduct formation (CAF) with mutant G12C K-RAS. Type of assay: binding. The conditions noted are these: Table 6; 10 μM, 1 h. As to the method: Embodiments disclosed herein are further illustrated by the following examples in Tables 1-4 and the Examples hereinbelow. The Tables indicate the compound number, structure, the observed mass spectral molecular weight peak, and covalent adduct formation (CAF) with a mutant G12C K-RAS after 60 minutes at a concentration of 10 micromolar.

As for `C=CC(=O)N1C[C@H](C)N(c2nc(=O)n3c4c(c(-c5cc(Cl)ccc5F)c(Cl)cc24)OC[C@@H]3CN2CCC(F)(F)C2)C[C@H]1C` [Example 214, (3S)-7-((2S,5R)-4-acryloyl 2,5-dimethylpiperazin-1-yl)-9-chloro-10-(5-chloro-2-fluorophenyl)-3-((3,3-difluoropyrrolidin-1-yl)methyl)-2,3-dihydro-5H [1,4]oxazino[2,3,4-ij]quinazolin-5-one], the “% CAF @ 10 μM,1 h” value is listed as 60.9%.

On to `C=CC(=O)N1C[C@H](C)N(c2nc(=O)n3c4c(c(-c5ccc(F)cc5F)c(Cl)cc24)OC[C@@H]3CCCN2CCOCC2)C[C@H]1C` [Example 215, (3S)-7-((2S,5R)-4-acryloyl-2,5-dimethylpiperazin-1-yl)-9-chloro-10-(2,4-difluorophenyl)-3-(3-morpholinopropyl)-2,3-dihydro-5H-[1,4]oxazino[2,3,4-ij]quinazolin-5-one], for which the “% CAF @ 10 μM,1 h” value is reported as 91.2%.

As for `C=CC(=O)N1C[C@H](C)N(c2nc(=O)n3c4c(c(-c5cc(Cl)ccc5F)c(Cl)cc24)OC[C@H]3CCCN2CCOCC2)C[C@H]1C` [Example 216, (3R)-7-((2S,5R)-4-acryloyl-2,5-dimethylpiperazin-1-yl)-9-chloro-10-(5-chloro-2-fluorophenyl)-3-(3-morpholinopropyl)-2,3-dihydro-5H-[1,4]oxazino[2,3,4-ij]quinazolin-5-one], the “% CAF @ 10 μM,1 h” value is on record as 73.8%.

Consider `C=CC(=O)N1C[C@H](C)N(c2nc(=O)n3c4c(c(-c5ccc(F)cc5F)c(Cl)cc24)OC[C@@H]3CCN2CCOCC2)C[C@H]1C` [Example 217, (3S)-7-((2S,5R)-4-acryloyl-2,5-dimethylpiperazin-1-yl)-9-chloro-10-(2,4-difluorophenyl)-3-(2-morpholinoethyl)-2,3-dihydro-5H-[1,4]oxazino[2,3,4-ij]quinazolin-5-one], for which the “% CAF @ 10 μM,1 h” value came to 83.4%.

Turning to `C=CC(=O)N1C[C@H](C)N(c2nc(=O)n3c4c(c(-c5ccc(F)cc5F)c(Cl)cc24)OC[C@H]3CCCN2CCOCC2)C[C@H]1C` [Example 218, (3R)-7-((2S,5R)-4-acryloyl-2,5-dimethylpiperazin-1-yl)-9-chloro-10-(2,4-difluorophenyl)-3-(3-morpholinopropyl)-2,3-dihydro-5H-[1,4]oxazino[2,3,4-ij]quinazolin-5-one], the “% CAF @ 10 μM,1 h” value was 95.6%.

Take `C=CC(=O)N1C[C@H](C)N(c2nc(=O)n3c4c(c(-c5c(C)ccc6[nH]nnc56)ccc24)OCC3)C[C@H]1C` [Example 219, 7-((2S,5R)-4-acryloyl-2,5-dimethylpiperazin-1-yl)-10-(5-methyl-1H-benzo[d][1,2,3]triazol-4-yl)-2,3-dihydro-5H-[1,4]oxazino[2,3,4-ij]quinazolin-5-one]: the “% CAF @ 10 μM,1 h” value was found to be 0%.

Take `C=CC(=O)N1C[C@H](C)N(c2nc(=O)n3c4c(c(-c5c(O)cccc5F)c(Cl)cc24)OC[C@@H]3CN2CCC(F)(F)C2)C[C@H]1C` [Example 220, (3S,10R)-7-((2S,5R)-4-acryloyl-2,5-dimethylpiperazin-1-yl)-9-chloro-3-((3,3-difluoropyrrolidin-1-yl)methyl)-10-(2-fluoro-6-hydroxyphenyl)-2,3-dihydro-5H-[1,4]oxazino[2,3,4-ij]quinazolin-5-one]: the “% CAF @ 10 μM,1 h” value is reported as 0%.

`C=CC(=O)N1C[C@H](C)N(c2nc(=O)n3c4c(c(-c5c(O)cccc5F)c(Cl)cc24)OC[C@@H]3CN2CCC(F)(F)C2)C[C@H]1C` [Example 221, (3S,10S)-7-((2S,5R)-4-acryloyl-2,5-dimethylpiperazin-1-yl)-9-chloro-3-((3,3-difluoropyrrolidin-1-yl)methyl)-10-(2-fluoro-6-hydroxyphenyl)-2,3-dihydro-5H-[1,4]oxazino[2,3,4-ij]quinazolin-5-one]: the “% CAF @ 10 μM,1 h” value came to 70.9%.

In the case of `C=CC(=O)N1C[C@H](C)N(c2nc(=O)n3c4c(c(-c5c(F)ccc6[nH]nnc56)ccc24)OCC3)C[C@H]1C` [Example 223, 7-((2S,5R)-4-acryloyl-2,5-dimethylpiperazin-1-yl)-10-(5-fluoro-1H-benzo[d][1,2,3]triazol-4-yl)-2,3-dihydro-5H-[1,4]oxazino[2,3,4-ij]quinazolin-5-one], the “% CAF @ 10 μM,1 h” value is 0%.

Turning to `C=CC(=O)N1C[C@H](C)N(c2nc(=O)n3c4c(c(-c5c(F)ccc6cc[nH]c(=O)c56)ccc24)OCC3)C[C@H]1C` [Example 224, 7-((2S,5R)-4-acryloyl-2,5-dimethylpiperazin-1-yl)-10-(7-fluoro-1-oxo-1,2-dihydroisoquinolin-8-yl)-2,3-dihydro-5H-[1,4]oxazino[2,3,4-ij]quinazolin-5-one], the “% CAF @ 10 μM,1 h” value amounted to 0%.

For the compound `C=CC(=O)N1C[C@H](C)N(c2nc(=O)n3c4c(c(-c5c(F)ccc6c5C(=O)NC6)ccc24)OCC3)C[C@H]1C` [Example 231, 7-((2S,5R)-4-acryloyl-2,5-dimethylpiperazin-1-yl)-10-(5-fluoro-3-oxoisoindolin-4-yl)-2,3-dihydro-5H-[1,4]oxazino[2,3,4-ij]quinazolin-5-one], the “% CAF @ 10 μM,1 h” value is on record as 0%.

`C=CC(=O)N1C[C@H](C)N(c2nc(=O)n3c4c(c(-c5ccc(F)cc5F)c(Cl)cc24)OC[C@@H]3CN2CCC2)C[C@H]1C` [Example 232, (3S)-7-((2S,5R)-4-acryloyl-2,5-dimethylpiperazin-1-yl)-3-(azetidin-1-ylmethyl)-9-chloro-10-(2,4-difluorophenyl)-2H-[1,4]oxazino[2,3,4-ij]quinazolin-5(3H)-one]: the “% CAF @ 10 μM,1 h” value is given as 82.4%.

Regarding `C=CC(=O)N1C[C@H](C)N(c2nc(=O)n3c4c(c(-c5ccc(F)cc5F)c(Cl)cc24)OC[C@H]3CN2CCC2)C[C@H]1C` [Example 233, (3R)-7-((2S,5R)-4-acryloyl-2,5-dimethylpiperazin-1-yl)-3-(azetidin-1-ylmethyl)-9-chloro-10-(2,4-difluorophenyl)-2H-[1,4]oxazino[2,3,4-ij]quinazolin-5(3H)-one], the “% CAF @ 10 μM,1 h” value came out at 76%.

In the case of `C=CC(=O)N1C[C@H](C)N(c2nc(=O)n3c4c(c(-c5ccc(F)cc5F)c(Cl)cc24)OC[C@H]3Cn2cccn2)C[C@H]1C` [Example 234, (3R)-3-((1H-pyrazol-1-yl)methyl)-7-((2S,5R)-4-acryloyl-2,5-dimethylpiperazin-1-yl)-9-chloro-10-(2,4-difluorophenyl)-2H-[1,4]oxazino[2,3,4-ij]quinazolin-5(3H)-one], the “% CAF @ 10 μM,1 h” value turned out to be 71.3%.

For `C=CC(=O)N1C[C@H](C)N(c2nc(=O)n3c4c(c(-c5ccc(F)cc5F)c(Cl)cc24)OC[C@H]3CN(C)CC(F)(F)F)C[C@H]1C` [Example 235, (3R)-7-((2S,5R)-4-acryloyl-2,5-dimethylpiperazin-1-yl)-9-chloro-10-(2,4-difluorophenyl)-3-((methyl(2,2,2-trifluoroethyl)amino)methyl)-2H-[1,4]oxazino[2,3,4-ij]quinazolin-5(3H)-one], the “% CAF @ 10 μM,1 h” value came to 44.5%.

With `C=CC(=O)N1C[C@H](C)N(c2nc(=O)n3c4c(c(-c5ccc(F)cc5F)c(Cl)cc24)OC[C@@H]3Cn2cccn2)C[C@H]1C` [Example 236, (3S)-3-((1H-pyrazol-1-yl)methyl)-7-((2S,5R)-4-acryloyl-2,5-dimethylpiperazin-1-yl)-9-chloro-10-(2,4-difluorophenyl)-2H-[1,4]oxazino[2,3,4-ij]quinazolin-5(3H)-one], the “% CAF @ 10 μM,1 h” value is recorded as 60.9%.

Regarding `C=CC(=O)N1C[C@H](C)N(c2nc(=O)n3c4c(c(-c5ccc(F)cc5F)c(Cl)cc24)OC[C@@H]3CN(C)CC(F)(F)F)C[C@H]1C` [Example 237, (3S)-7-((2S,5R)-4-acryloyl-2,5-dimethylpiperazin-1-yl)-9-chloro-10-(2,4-difluorophenyl)-3-((methyl(2,2,2-trifluoroethyl)amino)methyl)-2H-[1,4]oxazino[2,3,4-ij]quinazolin-5(3H)-one], the “% CAF @ 10 μM,1 h” value stood at 78.5%.

In the case of `C=CC(=O)N1C[C@H](C)N(c2nc(=O)n3c4c(c(-c5ccc(F)cc5F)c(Cl)cc24)OC[C@@H]3Cn2ccnc2)C[C@H]1C` [Example 238, (3S)-3-((1H-imidazol-1-yl)methyl)-7-((2S,5R)-4-acryloyl-2,5-dimethylpiperazin-1-yl)-9-chloro-10-(2,4-difluorophenyl)-2H-[1,4]oxazino[2,3,4-ij]quinazolin-5(3H)-one], the “% CAF @ 10 μM,1 h” value was 79.4%.

`C=CC(=O)N1C[C@H](C)N(c2nc(=O)n3c4c(c(-c5ccc(F)cc5F)c(Cl)cc24)O[C@@H](CCCO)C3)C[C@H]1C` [Example 247, (2S)-7-((2S,5R)-4-acryloyl-2,5-dimethylpiperazin-1-yl)-9-chloro-10-(2,4-difluorophenyl)-2-(3-hydroxypropyl)-2,3-dihydro-5H-[1,4]oxazino[2,3,4-ij]quinazolin-5-one]: the “% CAF @ 10 μM,1 h” value is recorded as 42.2%.

For the compound `C=CC(=O)N1C[C@H](C)N(c2nc(=O)n3c4c(c(-c5ccc(F)cc5F)c(Cl)cc24)O[C@H](CCCO)C3)C[C@H]1C` [Example 249, (2R)-7-((2S,5R)-4-acryloyl-2,5-dimethylpiperazin-1-yl)-9-chloro-10-(2,4-difluorophenyl)-2-(3-hydroxypropyl)-2,3-dihydro-5H-[1,4]oxazino[2,3,4-ij]quinazolin-5-one], the “% CAF @ 10 μM,1 h” value amounted to 51.2%.

In the case of `C=CC(=O)N1C[C@H](C)N(c2nc(=O)n3c4c(c(-c5ccc(F)cc5F)c(Cl)cc24)OC[C@@H]3CCCO)C[C@H]1C` [Example 250, (3S)-7-((2S,5R)-4-acryloyl-2,5-dimethylpiperazin-1-yl)-9-chloro-10-(2,4-difluorophenyl)-3-(3-hydroxypropyl)-2,3-dihydro-5H-[1,4]oxazino[2,3,4-ij]quinazolin-5-one], the “% CAF @ 10 μM,1 h” value turned out to be 70.1%.

For `C=CC(=O)N1C[C@H](C)N(c2nc(=O)n3c4c(c(-c5ccc(F)cc5F)c(Cl)cc24)OC[C@H]3CCCO)C[C@H]1C` [Example 251, (3R)-7-((2S,5R)-4-acryloyl-2,5-dimethylpiperazin-1-yl)-9-chloro-10-(2,4-difluorophenyl)-3-(3-hydroxypropyl)-2,3-dihydro-5H-[1,4]oxazino[2,3,4-ij]quinazolin-5-one], the “% CAF @ 10 μM,1 h” value is listed as 85.3%.
